# According to BindingDB's records for doi:10.1021/jm060732n (Mcgill University, 2006):
# Assay: Inhibition of Enterococcus faecium AAC(6')Ii
row,Ki,SMILES
1,43 nM,CC(C)(COP(=O)(O)OP(=O)(O)OC[C@H]1O[C@@H](n2cnc3c(N)ncnc32)[C@H](O)[C@@H]1OP(=O)(O)O)[C@@H](O)C(=O)NCCC(=O)NCCSCCC(=O)NC[C@H]1O[C@H](O[C@H]2[C@H](O)[C@@H](O)[C@H](N)C[C@@H]2N)[C@H](N)[C@@H](O)[C@@H]1O [truncated aminoglycoside-coenzyme A bisubstrate analogue 1b]
2,161 nM,CC(C)(COP(=O)(O)OP(=O)(O)OC[C@H]1O[C@@H](n2cnc3c(N)ncnc32)[C@H](O)[C@@H]1OP(=O)(O)O)[C@@H](O)C(=O)NCCC(=O)NCCSCCCC(=O)NC[C@H]1O[C@H](O[C@H]2[C@H](O)[C@@H](O)[C@H](N)C[C@@H]2N)[C@H](N)[C@@H](O)[C@@H]1O [truncated aminoglycoside-coenzyme A bisubstrate analogue 1c]
3,76 nM,"CC(C)(COP(=O)(O)OP(=O)(O)OC[C@H]1O[C@@H](n2cnc3c(N)ncnc32)[C@H](O)[C@@H]1OP(=O)(O)O)[C@@H](O)C(=O)NCCC(=O)NCCSCC(=O)NC[C@H]1O[C@H](O[C@H]2[C@H](O)[C@@H](O)[C@H](N)C[C@@H]2N)[C@H](N)[C@@H](O)[C@@H]1O [[(2R,3S,4R,5R)-5-(6-amino-9H-purin-9-yl)-4-hydroxy-3-(phosphonatooxy)oxolan-2-yl]methyl {[(3R)-3-({2-[(2-{[({[(2R,3S,4R,5R,6R)-5-amino-6-{[(1R,2R,3S,4R,6S)-4,6-diamino-2,3-dihydroxycyclohexyl]oxy}-3,4-dihydroxyoxan-2-yl]methyl}carbamoyl)methyl]sulfanyl}ethyl)carbamoyl]ethyl}carbamoyl)-3-hydroxy-2,2-dimethylpropylphosphonato]oxy}phosphonate]"
4,119 nM,CC(C)(COP(=O)(O)OP(=O)(O)OC[C@H]1O[C@@H](n2cnc3c(N)ncnc32)[C@H](O)[C@@H]1OP(=O)(O)O)[C@@H](O)C(=O)NCCC(=O)NCCSCC(=O)NC[C@H]1O[C@H](O[C@H]2[C@H](O)[C@@H](O[C@H]3O[C@H](CO)[C@@H](O)[C@H](O)[C@H]3O[C@@H]3O[C@H](CO)[C@@H](O)[C@H]3O)[C@H](N)C[C@@H]2N)[C@H](N)[C@@H](O)[C@@H]1O [truncated aminoglycoside-coenzyme A bisubstrate analogue 3]
5,110 nM,CC(C)(COP(=O)(O)OP(=O)(O)OC[C@H]1O[C@@H](n2cnc3c(N)ncnc32)[C@H](O)[C@@H]1OP(=O)(O)O)[C@@H](O)C(=O)NCCC(=O)NCCSCC(=O)NC[C@H]1O[C@H](O[C@H]2[C@H](O)[C@@H](O[C@H]3O[C@H](CO)[C@@H](O)[C@H](N)[C@H]3O)[C@H](N)C[C@@H]2N)[C@H](O)[C@@H](O)[C@@H]1O
6,8000 nM,"CC(C)(COP(=O)(O)OP(=O)(O)OC[C@H]1O[C@@H](n2cnc3c(N)ncnc32)[C@H](O)[C@@H]1OP(=O)(O)O)[C@@H](O)C(=O)NCCC(=O)NCCSCCCCC(=O)NC[C@H]1O[C@H](O[C@H]2[C@H](O)[C@@H](O)[C@H](N)C[C@@H]2N)[C@H](N)[C@@H](O)[C@@H]1O [[(2R,3S,4R,5R)-5-(6-amino-9H-purin-9-yl)-4-hydroxy-3-(phosphonatooxy)oxolan-2-yl]methyl {[(3R)-3-({2-[(2-{[4-({[(2R,3S,4R,5R,6R)-5-amino-6-{[(1R,2R,3S,4R,6S)-4,6-diamino-2,3-dihydroxycyclohexyl]oxy}-3,4-dihydroxyoxan-2-yl]methyl}carbamoyl)butyl]sulfanyl}ethyl)carbamoyl]ethyl}carbamoyl)-3-hydroxy-2,2-dimethylpropylphosphonato]oxy}phosphonate]"
